{
  "source": "paper PMC8279406",
  "about": "(Journal of Medicinal Chemistry, 2021)",
  "key": {"[1]": {"system": "recombinant K26GFP HSV-1 strain", "test": "Infection neutralization assay, transfected J cells, K26GFP HSV-1, EGFP expression", "assay_type": "cell-based", "conditions": "for effect on HSV-1 infection (in words): J cells expressing nectin1 alone; for effect on virus entry (in words): J cells expressing nectin1 plus αvβ6 alone", "text": "To this aim, we selected the J cells, which are negative for gD receptors and therefore cannot be infected by HSV-1 unless gD cognate receptors (i.e., nectin1) are transgenically expressed. […] In particular, J cells were transfected with low amounts of nectin1 plasmid, plus either αvβ6 or αvβ8 integrin plasmid or both, and then infected with the recombinant K26GFP HSV-1 strain. Indeed, the capsid protein ICP26 of this strain is fused to the green fluorescent protein (GFP),[60] whose cellular expression can be used to measure the viral infection. Thus, the K26GFP entry in J cells after compound treatment was evaluated using fluorescent microscopy (Figure 4A–T), and the enhanced green fluorescent protein (EGFP) expression was quantified using flow cytometry as the mean fluorescence intensity (MFI) of gated cells (Figure 4U). […] In parallel, we also evaluated the HSV infection in J cells expressing nectin1 plus either αvβ6 or αvβ8 alone.\nJ cells were transfected with a low amount (75 ng of DNA/24 well) of nectin1 alone (A–E), or with the same amount of nectin1 plus αvβ6 integrin (300 ng DNA/24 well) (F–J), or plus αvβ8 integrin (300 ng DNA/24 well) (K–O), or plus both the integrin receptors (P–T). […] The cells were infected with K26GFP. The nonpenetrated virus was inactivated by an acid wash. Infectivity was measured at 16 h after infection as EGFP expression. (A)–(T) panels show the EGFP expression in each sample for a typical experiment. (U) K26GFP infection was quantified as EGFP protein expression in the flow cytometry assay as the mean fluorescence intensity (MFI) of gated cells. Histograms represent the average of triplicates ± SD.\nIn other experiments, J cells were transfected with low amounts of plasmids encoding nectin1 (75 ng of DNA/24 well), plus or minus plasmids encoding αv + β6 or αv + β8 integrins (300 ng of DNA/24 well) or together by means of Lipofect 2000 (Life Technologies). The total amount of transfected plasmid DNA was made equal (675 ng/24 well) by the addition of Erb-2 plasmid DNA. […] Following infection, the unpenetrated virus was inactivated by means of an acid wash (40 mM citric acid, 10 mM KCl, 135 mM NaCl, pH 3),[87] and the cells were incubated for a further 16 h in the absence of the peptides or antibody. The extent of infection was assessed through EGFP expression.\nCytofluorimetric analyses were performed using an AccuriC6 flow cytometer (Becton Dickinson). A least 10 000 events were acquired for each sample. Microphotography of the inhibition experiment was conducted using a Nikon Eclipse Ni microscope."}, "alphaVbeta5": {"target": "alphaVbeta5 (Homo sapiens, UniProt P06756+P18084)", "test": "alphaVbeta5 binding affinities (supplementary CSV only)", "conditions": "unit inferred", "text": "Supplement jm1c00533_si_002.csv, table | column: alphaVbeta5 Binding affinities (IC50)"}, "human αvβ8 integrin": {"target": "T1, human αvβ8 integrin (Homo sapiens, UniProt P06756+P26012)", "T1 construct": "purchased R&D Systems (Biotechne brand) 4135-AV", "test": "LAP(TGF-β1)-αvβ8 competitive solid-phase ELISA binding assay", "conditions": "for IC50: competitive ELISA, immobilized LAP, soluble integrin", "protocol": "The affinity and selectivity of the integrin peptide ligands were ascertained according to a modified method previously reported by some of us.[33],[47] The binding was determined in a competitive solid-phase binding assay using extracellular matrix proteins, soluble integrins, and pertinent integrin-specific antibodies in an enzyme-linked immunosorbent assay (ELISA).\nThe experimental procedure is as described for the αvβ6 assay, except for the following modifications. The plates were coated, washed, and blocked as described above. Soluble integrin αvβ8 was mixed with an equal volume of serially diluted inhibitors resulting in a final integrin concentration of 0.25 μg/mL and 0.0032–10 μM for the inhibitors. The primary and secondary antibodies are the same as in the integrin αvβ6 assay. Visualization and analysis were performed as described above. Each plate contained a linear peptide ([…]) as the internal standard.[3]"}, "[2]": {"system": "recombinant R8102 HSV-1 strain", "test": "Infection neutralization assay, 293T cells, R8102 HSV-1, β-galactosidase readout", "assay_type": "cell-based", "conditions": "for effect on HSV-1 infection (in words): increasing concentrations, 1 h prior to infection and 90 min during attachment", "text": "The binding of HSV-1 gH/gL to either αvβ6 or αvβ8 results in the dissociation of gL from the heterodimer, which, in turn, can favor HSV entry into cells.[27] […] R1.302, a nectin1-neutralizing mAb, was used as a positive control. In the first set of experiments, 293T cells, expressing both the αvβ6 and αvβ8 integrins, were alternatively exposed to increasing concentrations of the integrin-binding peptides and R1.302 before and during the infection by the recombinant R8102 HSV-1 strain. This virion carries, indeed, a lacZ reporter gene under the control of the α27 promoter, whose expression analysis allows for readily quantifying the infectivity.[59] […] Remarkably, these preliminary results were in agreement with the known interchangeable and additive roles played by αvβ6 and αvβ8 integrins upon HSV-1 infection.[26]\nFigure 3 Inhibition of HSV-1 infection. 293T cells were exposed to increasing concentrations of the indicated peptides for 1 h prior to infection and during virus attachment for another 90 min. Infection was induced using the recombinant R8102 HSV-1 strain and measured after 8 h as β-galactosidase activity, using o-nitrophenyl-D-galactopyranoside (ONPG) as a substrate. The assays were run in triplicate. Bars show standard deviation (SD).\nThe experiments were performed using 293T cells in 96-well plates with extracellular virions of R8102 at an input multiplicity of infection of 5 PFU/cell. Cells were exposed to increasing concentrations of the peptides for 1 h at 37 °C, and the viral inoculum was added in the presence of peptides for 90 min at 37 °C. After the removal of the inoculum and rinsing with DMEM containing 1% FBS, the cells were incubated without peptides for 8 h. The same protocol was followed for R1.302 mAb that was used as a positive control. The infection was quantified as β-Gal activity using o-nitrophenyl-D-galactopyranoside (ONPG) as a substrate.[86]"}, "[3]": {"conditions": "J cells expressing nectin1 plus both αvβ6 and αvβ8, 700 μM"}, "[4]": {"conditions": "J cells expressing nectin1 plus αvβ8 alone, 700 μM"}},
  "data": [
    {"molecule": "CN1C(=O)[C@H](C2CCCCC2)NC(=O)[C@H](CC(=O)O)NC(=O)CNC(=O)[C@H](CCCNC(=N)N)NC(=O)CC[C@H]1C(N)=O", "note": "[compound 6, [Arg-Gly-Asp-Chg-(NMe)Glu]-CONH2]", "values": [
      {"measurement": "effect on HSV-1 infection (in words)", "setting": "[1]; 700 μM", "result": "only treatment with R1.302 (B) was effective"},
      {"measurement": "effect on HSV infection (in words)", "setting": "[1]; [3]", "result": "significantly reduced"},
      {"measurement": "effect on virus entry (in words)", "setting": "[1]; 700 μM", "result": "the virus entry was affected"},
      {"measurement": "effect on HSV infection (in words)", "setting": "[1]; [4]", "result": "inhibitory effects were detected only in the presence of 6"},
      {"measurement": "IC50", "setting": "alphaVbeta5", "result": "> 5", "unit": "µM"},
      {"measurement": "fold more potent than 1 for αvβ8", "setting": "human αvβ8 integrin; 60 vs 174 nM", "result": 3, "unit": "fold"},
      {"measurement": "IC50", "setting": "human αvβ8 integrin", "result": "0.06 ± 0.002", "unit": "µM"},
      {"measurement": "effect on HSV-1 infection (in words)", "setting": "[2]", "result": "able to inhibit HSV-1 infection in a dose-dependent manner"}
    ]},
    {"molecule": "N=C(N)NCCC[C@@H]1NC(=O)CC[C@@H](C(N)=O)NC(=O)[C@H](C2CCCCC2)NC(=O)[C@H](CC(=O)O)NC(=O)CNC1=O", "note": "[compound 1, [Arg-Gly-Asp-Chg-Glu]-CONH2]", "values": [
      {"measurement": "effect on HSV-1 infection (in words)", "setting": "[1]; 700 μM", "result": "only treatment with R1.302 (B) was effective"},
      {"measurement": "effect on HSV infection (in words)", "setting": "[1]; [3]", "result": "only partially impaired"},
      {"measurement": "effect on virus entry (in words)", "setting": "[1]; 700 μM", "result": "the virus entry was affected"},
      {"measurement": "effect on HSV infection (in words)", "setting": "[1]; [4]", "result": "inhibitory effects were detected only in the presence of 6"},
      {"measurement": "IC50", "setting": "alphaVbeta5", "result": "> 5", "unit": "µM"},
      {"measurement": "IC50", "setting": "human αvβ8 integrin", "result": "0.174 ± 0.031", "unit": "µM"},
      {"measurement": "inhibition of HSV infection", "setting": "[2]; 700 μM", "result": 40, "unit": "%"},
      {"measurement": "maximum inhibition of HSV-1 infection", "setting": "[2]; at 1000 μM", "result": 50, "unit": "%"},
      {"measurement": "effect on HSV-1 infection (in words)", "setting": "[2]", "result": "able to inhibit HSV-1 infection in a dose-dependent manner"}
    ]}
  ]
}
